The text below walks through data of patent US11420970B1 (NOVARTIS AG, priority 2019, dated 2022).

Structures are written as SMILES. Where two headings read alike, the source gives them in different places.

The target in one experiment is NSD2 [1-1365] (Homo sapiens (Human), UniProt O96028). As to the kind of experiment: LC-MS/MS-based NSD2 enzymatic assay (SAH production). The conditions noted are these: read-out: NSD2 IC50. It is filed as biochemical. Put shortly:
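Full-length NSD2 [1-1365] (8 nM final) with 1 μM SAM and 400 nM mouse-liver nucleosome in Tris pH 8.0 buffer; inhibitor preincubated 20 min with enzyme/SAM before nucleosome addition. Reaction 90 min at room temperature, TFA-quenched; SAH quantified by LC-MS/MS against d4-SAH internal standard and SAH standard curve.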

Experiment [1] relates to cellular H3K36me2 level in multiple myeloma cell line KMS11 (t(4;14)+). As to the kind of experiment: H3K36me2 cellular ELISA assay in KMS11-Par line. It counts as cell-based. The conditions noted are these: Homo sapiens, KMS-11, ELISA, read-out: H3K36me2 ELISA in KMS11-Par. Put shortly: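 KMS11 cells were seeded a day ahead at 1,250 per well in Opti-MEM with B-27/N2, then treated with compound for 72 h. Histones were acid-extracted with 0.4M HCl, and H3K36me2 and total H3 were read by chemiluminescent ELISA. Viability was checked with CellTiter-Glo on a parallel plate in maintenance media.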
On the technique in general: An ELISA detects its analyte on a solid surface through an enzyme-linked reagent.

Experiment [2] deals with cellular H3K36me2 level in thyroid carcinoma cell line CGTH-W-1 (NSD2 E1099K). Briefly: H3K36me2 cellular ELISA assay in CGTH-W-1 line. It counts as cell-based. To be noted: Homo sapiens, CGTH-W-1, 72 h, read-out: H3K36me2 ELISA in CGTH-W-1. Summed up:
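CGTH-W-1 thyroid carcinoma cells (NSD2 E1099K gain-of-function) exposed to compound for 72 hours. Histone-bound plates probed for H3K36me2 and total H3 by chemiluminescent ELISA. Viability checked on a parallel plate with CellTiter-Glo.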

[3] abbreviates: NSD2 biochemical activity, class symbols.
Where [4] appears, read: KMS11-Par line (t(4;14)+), 72 hours treatment.

NSD2 [1-1365], sequence (O96028 whole entry): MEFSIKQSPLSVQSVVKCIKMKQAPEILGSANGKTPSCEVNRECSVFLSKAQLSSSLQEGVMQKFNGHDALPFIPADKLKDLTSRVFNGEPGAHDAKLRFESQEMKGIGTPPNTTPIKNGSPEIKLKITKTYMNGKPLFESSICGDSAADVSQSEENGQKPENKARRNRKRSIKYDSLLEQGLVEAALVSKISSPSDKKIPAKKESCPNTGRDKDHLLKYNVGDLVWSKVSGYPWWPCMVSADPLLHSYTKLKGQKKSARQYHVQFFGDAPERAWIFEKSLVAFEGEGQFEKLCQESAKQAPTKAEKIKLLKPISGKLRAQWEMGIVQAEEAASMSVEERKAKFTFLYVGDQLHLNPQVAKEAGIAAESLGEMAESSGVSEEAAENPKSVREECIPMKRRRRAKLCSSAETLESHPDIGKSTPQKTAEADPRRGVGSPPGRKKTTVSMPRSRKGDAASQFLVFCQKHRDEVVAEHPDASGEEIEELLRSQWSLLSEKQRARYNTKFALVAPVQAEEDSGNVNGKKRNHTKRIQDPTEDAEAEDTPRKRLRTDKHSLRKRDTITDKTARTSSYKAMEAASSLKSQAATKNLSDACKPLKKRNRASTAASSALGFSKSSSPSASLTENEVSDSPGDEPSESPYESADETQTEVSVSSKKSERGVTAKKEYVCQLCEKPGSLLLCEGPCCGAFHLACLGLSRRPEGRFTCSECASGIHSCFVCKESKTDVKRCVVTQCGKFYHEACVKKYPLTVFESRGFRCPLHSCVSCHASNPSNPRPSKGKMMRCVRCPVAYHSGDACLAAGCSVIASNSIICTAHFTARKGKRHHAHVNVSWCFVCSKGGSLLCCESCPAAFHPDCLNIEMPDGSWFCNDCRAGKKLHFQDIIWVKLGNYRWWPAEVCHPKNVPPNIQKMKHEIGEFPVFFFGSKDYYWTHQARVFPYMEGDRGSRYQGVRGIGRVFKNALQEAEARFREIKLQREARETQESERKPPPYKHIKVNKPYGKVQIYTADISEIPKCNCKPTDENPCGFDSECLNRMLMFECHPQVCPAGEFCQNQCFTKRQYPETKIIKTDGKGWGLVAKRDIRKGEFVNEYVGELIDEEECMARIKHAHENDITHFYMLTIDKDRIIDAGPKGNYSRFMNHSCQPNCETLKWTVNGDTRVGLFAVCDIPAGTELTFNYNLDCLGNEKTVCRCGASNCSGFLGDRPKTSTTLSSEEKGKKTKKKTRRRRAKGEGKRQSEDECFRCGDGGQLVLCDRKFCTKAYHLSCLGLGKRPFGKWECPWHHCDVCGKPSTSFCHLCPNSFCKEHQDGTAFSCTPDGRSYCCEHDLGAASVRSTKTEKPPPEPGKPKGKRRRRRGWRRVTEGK

For the compound `COc1cc(F)c(-c2cc(Cn3cnc4c(N)ncnc43)c(N3CCC[C@](N)([C@H](O)C(F)F)C3)cn2)cc1F` [Example 161, (S)-1-((R)-3-amino-1-(4-((6-amino-9H-purin-9-yl)methyl)-6-(2,5-difluoro-4-methoxyphenyl)pyridin-3-yl)piperidin-3-yl)-2,2-difluoroethan-1-ol], the values for the IC50 (at NSD2 [1-1365] (setting [3]); in experiment [1] (setting [4]); in experiment [2]) were 1 to 10 nM, 502 nM and 73 nM, respectively.
`COc1ccc(-c2cc(Cn3cnc4c(N)ncnc43)c(N3CCC[C@](N)([C@@H](O)C(F)F)C3)cn2)c(C(F)F)c1` [Example 162, (R)-1-((R)-3-amino-1-(4-((6-amino-9H-purin-9-yl)methyl)-6-(2-(difluoromethyl)-4-methoxyphenyl)pyridin-3-yl)piperidin-3-yl)-2,2-difluoroethan-1-ol]: the figures for the IC50 (at NSD2 [1-1365] (setting [3]); in experiment [1] (setting [4]); in experiment [2]) were 1 to 10 nM, 440 nM and 86 nM, respectively.
For `COc1ccc(-c2cc(Cn3cnc4c(N)ncnc43)c(N3CCC[C@](N)([C@H](O)C(F)F)C3)cn2)c(C(F)F)c1` [Example 163, (S)-1-((R)-3-amino-1-(4-((6-amino-9H-purin-9-yl)methyl)-6-(2-(difluoromethyl)-4-methoxyphenyl)pyridin-3-yl)piperidin-3-yl)-2,2-difluoroethan-1-ol] the same measures were 1 to 10 nM, 1850 nM and 204 nM.
In the case of `COc1ccc(-c2cc(Cn3cnc4c(N)ncnc43)c(N3CCC[C@](N)([C@H](O)C(F)F)C3)cn2)c(Cl)c1` [Example 168, (S)-1-((R)-3-amino-1-(4-((6-amino-9H-purin-9-yl)methyl)-6-(2-chloro-4-methoxyphenyl)pyridin-3-yl)piperidin-3-yl)-2,2-difluoroethan-1-ol], the IC50 at NSD2 [1-1365] was 10 to 1000 nM; in experiment [1] (KMS11-Par line, 72 hours), 4780 nM; in experiment [2], 997 nM.
Consider `COc1ccc(-c2cc(Cn3cnc4c(N)ncnc43)c(N3CCC[C@](N)([C@@H](O)C(F)F)C3)cn2)c(Cl)c1` [Example 169, (R)-1-((R)-3-amino-1-(4-((6-amino-9H-purin-9-yl)methyl)-6-(2-chloro-4-methoxyphenyl)pyridin-3-yl)piperidin-3-yl)-2,2-difluoroethan-1-ol], for which the IC50 at NSD2 [1-1365] was 10 to 1000 nM; in experiment [1] (KMS11-Par line, 72 hours), 2990 nM; in experiment [2] it was 426 nM.
Consider `Nc1ncnc2c1ncn2Cc1cc(-c2cc(F)c(F)cc2C(F)F)ncc1N1CCC[C@](N)([C@@H](O)C(F)F)C1` [Example 170, (R)-1-((R)-3-amino-1-(4-((6-amino-9H-purin-9-yl)methyl)-6-(2-(difluoromethyl)-4,5-difluorophenyl)pyridin-3-yl)piperidin-3-yl)-2,2-difluoroethan-1-ol], for which the IC50 was 10 to 1000 nM on NSD2 [1-1365]; 1470 nM in experiment [1] (KMS11-Par line, 72 hours); 161 nM in experiment [2].
Take `Nc1ncnc2c1ncn2Cc1cc(-c2cc(F)c(F)cc2C(F)F)ncc1N1CCC[C@](N)([C@H](O)C(F)F)C1` [Example 171, (S)-1-((R)-3-amino-1-(4-((6-amino-9H-purin-9-yl)methyl)-6-(2-(difluoromethyl)-4,5-difluorophenyl)pyridin-3-yl)piperidin-3-yl)-2,2-difluoroethan-1-ol]: the IC50 on NSD2 [1-1365] was 10 to 1000 nM; in experiment [1] (KMS11-Par line, 72 hours), 5520 nM; in experiment [2], 886 nM.
In the case of `Nc1ncnc2c1ncn2Cc1cc(-c2ccc(F)c(F)c2F)ncc1N1CCC[C@](N)([C@@H](O)C(F)F)C1` [Example 172, (R)-1-((R)-3-amino-1-(4-((6-amino-9H-purin-9-yl)methyl)-6-(2,3,4-trifluorophenyl)pyridin-3-yl)piperidin-3-yl)-2,2-difluoroethan-1-ol], the IC50 was 10 to 1000 nM at NSD2 [1-1365]; 8930 nM in experiment [1] (KMS11-Par line, 72 hours); 1200 nM in experiment [2].
For `COc1cc(F)ccc1-c1cc(Cn2cnc3c(N)ncnc32)c(N2CCC[C@](N)([C@H](O)C(F)F)C2)cn1` [Example 173, (S)-1-((R)-3-amino-1-(4-((6-amino-9H-purin-9-yl)methyl)-6-(4-fluoro-2-methoxyphenyl)pyridin-3-yl)piperidin-3-yl)-2,2-difluoroethan-1-ol] the same measures were 10 to 1000 nM, 12800 nM and 1040 nM.
For the compound `COc1cc(F)ccc1-c1cc(Cn2cnc3c(N)ncnc32)c(N2CCC[C@](N)([C@@H](O)C(F)F)C2)cn1` [Example 174, (R)-1-((R)-3-amino-1-(4-((6-amino-9H-purin-9-yl)methyl)-6-(4-fluoro-2-methoxyphenyl)pyridin-3-yl)piperidin-3-yl)-2,2-difluoroethan-1-ol], the IC50 on NSD2 [1-1365] was 10 to 1000 nM; in experiment [1] (KMS11-Par line, 72 hours) it was 10600 nM; in experiment [2], 1160 nM.
Consider `Nc1ncnc2c1ncn2Cc1cc(-c2ccc(F)c(Cl)n2)ncc1N1CCC[C@](N)([C@H](O)C(F)F)C1` [Example 175, (S)-1-((R)-3-amino-1-(4-((6-amino-9H-purin-9-yl)methyl)-6′-chloro-g-fluoro-[2,2′-bipyridin]-5-yl)piperidin-3-yl)-2,2-difluoroethan-1-ol], for which the IC50 at NSD2 [1-1365] was 10 to 1000 nM; in experiment [1] (KMS11-Par line, 72 hours), 11300 nM; in experiment [2], 534 nM.
As to `Nc1ncnc2c1ncn2Cc1cc(-c2ccc(F)c(Cl)n2)ncc1N1CCC[C@](N)([C@@H](O)C(F)F)C1` [Example 176, (R)-1-((R)-3-amino-1-(4-((6-amino-9H-purin-9-yl)methyl)-6′-chloro-5′-fluoro-[2,2′-bipyridin]-5-yl)piperidin-3-yl)-2,2-difluoroethan-1-ol], the IC50 is 10 to 1000 nM at NSD2 [1-1365]; 8970 nM in experiment [1] (KMS11-Par line, 72 hours); 953 nM in experiment [2].
For `Nc1ncnc2c1ncn2Cc1cc(-c2cnc(F)c(Cl)c2)ncc1N1CCC[C@](N)(c2cccc(Cl)n2)C1` [Example 180, (R)-9-((5-(3-amino-3-(6-chloropyridin-2-yl)piperidin-1-yl)-5′-chloro-6′-fluoro-[2,3′-bipyridin]-4-yl)methyl)-9H-purin-6-amine] the same measures were 10 to 1000 nM, 5490 nM and 1460 nM.
As to `COc1ccc(-c2cc(Cn3cnc4c(N)ncnc43)c(N3CCC[C@](N)(c4cccc(Cl)n4)C3)cn2)c(F)c1` [Example 181, (R)-9-((5-(3-amino-3-(6-chloropyridin-2-yl)piperidin-1-yl)-2-(2-fluoro-4-methoxyphenyl)pyridin-4-yl)methyl)-9H-purin-6-amine], the IC50 at NSD2 [1-1365] was 10 to 1000 nM; in experiment [1] (KMS11-Par line, 72 hours), 1980 nM; in experiment [2] it was 1560 nM.
In the same order, the values of `Nc1ncnc2c1ncn2Cc1cc(-c2ccc(F)cc2)ncc1N1CCC[C@](N)(c2cccc(C3CC3)n2)C1` [Example 182, (R)-9-((5-(3-amino-3-(6-cyclopropylpyridin-2-yl)piperidin-1-yl)-2-(4-fluorophenyl)pyridin-4-yl)methyl)-9H-purin-6-amine] are 1 to 10 nM, 142 nM and 97.5 nM.
For `C[C@H](F)c1cccc([C@@]2(N)CCCN(c3cnc(-c4ccc(F)cc4)cc3Cn3cnc4c(N)ncnc43)C2)n1` [Example 183, 9-((5-((R)-3-amino-3-(6-((S)-1-fluoroethyl)pyridin-2-yl)piperidin-1-yl)-2-(4-fluorophenyl)pyridin-4-yl)methyl)-9H-purin-6-amine] the same measures were 10 to 1000 nM, 455 nM and 159 nM.
Consider `COc1cc(F)c(-c2cc(Cn3cnc4c(N)ncnc43)c(N3CCC[C@](N)(c4cccc(Cl)n4)C3)cn2)cc1F` [Example 187, (R)-9-((5-(3-amino-3-(6-chloropyridin-2-yl)piperidin-1-yl)-2-(2,5-difluoro-4-methoxyphenyl)pyridin-4-yl)methyl)-9H-purin-6-amine], for which the IC50 at NSD2 [1-1365] was 10 to 1000 nM; in experiment [1] (KMS11-Par line, 72 hours) it was 815 nM; in experiment [2] it was 383 nM.
For `COc1ccc(-c2cc(Cn3cnc4c(N)ncnc43)c(N3CCC[C@](N)(c4ccc(F)c(Cl)n4)C3)cn2)cc1F` [Example 188, (R)-9-((5-(3-amino-3-(6-chloro-5-fluoropyridin-2-yl)piperidin-1-yl)-2-(3-fluoro-4-methoxyphenyl)pyridin-4-yl)methyl)-9H-purin-6-amine], the IC50 on NSD2 [1-1365] was 1 to 10 nM; in experiment [1] (KMS11-Par line, 72 hours), 1910 nM; in experiment [2], 1010 nM.
As for `Cc1nc([C@@]2(N)CCCN(c3cnc(-c4ccc(F)cc4)cc3Cn3cnc4c(N)ncnc43)C2)ccc1F` [Example 190, (R)-9-((5-(3-amino-3-(5-fluoro-6-methylpyridin-2-yl)piperidin-1-yl)-2-(4-fluorophenyl)pyridin-4-yl)methyl)-9H-purin-6-amine], the IC50 at NSD2 [1-1365] is 1 to 10 nM; in experiment [1] (KMS11-Par line, 72 hours), 687 nM; in experiment [2], 258 nM.
Regarding `Nc1ncnc2c1ncn2Cc1cc(-c2ccc(F)c(Cl)n2)ncc1N1CCC[C@](N)(c2cccc(Cl)n2)C1` [Example 191, (R)-9-((5-(3-amino-3-(6-chloropyridin-2-yl)piperidin-1-yl)-6′-chloro-5′-fluoro-[2,2′-bipyridin]-4-yl)methyl)-9H-purin-6-amine], the IC50 on NSD2 [1-1365] was 10 to 1000 nM; in experiment [1] (KMS11-Par line, 72 hours), 4560 nM; in experiment [2], 1380 nM.
